These results are taken from ChEMBL document CHEMBL1153245, “A profile of the in vitro anti-tumor activity of imidazolium-based ionic liquids” (2010).

Type in all cases: functional
One test concerns ACHN. In words: Anticancer activity against human ACHN cells assessed cell growth at 10 uM after 48 hrs by sulforhodamine B assay relative to control. In general terms: In SRB staining, fixed cells bind dye roughly in proportion to their protein.
In a further test the test system is RXF 393. In words: Anticancer activity against human RXF393 cells assessed cell growth at 10 uM after 48 hrs by sulforhodamine B assay relative to control.
The subject of the next test is DU-145. Briefly: Anticancer activity against human DU145 cells assessed cell growth at 10 uM after 48 hrs by sulforhodamine B assay relative to control.
A further test has as its system MCF7. Briefly: Anticancer activity against human MCF7 cells assessed cell growth at 10 uM after 48 hrs by sulforhodamine B assay relative to control.
The test system of the next test is MDA-MB-435. In words: Anticancer activity against human MDA-MB-435 cells assessed cell growth at 10 uM after 48 hrs by sulforhodamine B assay relative to control.
Another test has as its system K562. In words: Anticancer activity against human K562 cells assessed cell growth at 10 uM after 48 hrs by sulforhodamine B assay relative to control.
The next test relates to MOLT-4. In words: Anticancer activity against human MOLT4 cells assessed cell growth at 10 uM after 48 hrs by sulforhodamine B assay relative to control.
The next test concerns SR. In words: Anticancer activity against human SR cells assessed cell growth at 10 uM after 48 hrs by sulforhodamine B assay relative to control.
The next test has as its system NCI-H226. In words: Anticancer activity against human NCI-H226 cells assessed cell growth at 10 uM after 48 hrs by sulforhodamine B assay relative to control.
The subject of a further test is SW-620. In words: Anticancer activity against human SW620 cells assessed cell growth at 10 uM after 48 hrs by sulforhodamine B assay relative to control.
The subject of another test is SF-268. In words: Anticancer activity against human SF268 cells assessed cell growth at 10 uM after 48 hrs by sulforhodamine B assay relative to control.
The subject of a further test is Malme-3M. In words: Anticancer activity against human MALME-3M cells assessed cell growth at 10 uM after 48 hrs by sulforhodamine B assay relative to control.
For the next test, the system named is HL-60(TB). In words: Anticancer activity against human HL-60(TB) cells assessed cell growth at 10 uM after 48 hrs by sulforhodamine B assay relative to control.
The test system of the next test is CCRF-CEM. Briefly: Anticancer activity against human CCRF-CEM cells assessed cell growth at 10 uM after 48 hrs by sulforhodamine B assay relative to control.

Consider `Cn1cc[n+](CCO)c1.O=S(=O)([N-]S(=O)(=O)C(F)(F)F)C(F)(F)F`, for which the Activity came out at 97.02% with ACHN; 95.99% with RXF 393; 114.39% in the test with DU-145; 105.11% with MCF7; 116.12% in the test with MDA-MB-435; 80.37% in the test with K562. Besides, the Activity in the test with MOLT-4 turned out to be 49.74%; in the test with SR, 119.61%; in the test with NCI-H226, 101.7%; with SW-620, 103.41%; with SF-268, 104.78%; in the test on Malme-3M it was 121.81%. The Activity in the test on HL-60(TB) turned out to be 37.14%; with CCRF-CEM, 72.37%.
Take `CCCCCCCC[n+]1ccn(C)c1.[Cl-]`: the Activity with ACHN came to 75.93%; in the test on RXF 393, 78.03%; with DU-145 it was 99.82%; in the test on MCF7, 79.81%; in the test on MDA-MB-435 it was 70.46%; in the test on K562, 63.96%. Moreover, the Activity in the test on MOLT-4 came to 81.09%; with SR, 88.57%; with NCI-H226, 75.79%; in the test on SW-620 it was 89.37%; in the test with SF-268 it was 95.77%; in the test on Malme-3M, 80.97%. The figures for the Activity in the test on HL-60(TB) and with CCRF-CEM were 94.06% and 121.49%, respectively.
For the compound `CCCCCC[n+]1ccn(C)c1.O=S(=O)([N-]S(=O)(=O)C(F)(F)F)C(F)(F)F`, the Activity in the test on ACHN was determined as 88.98%; in the test on RXF 393, 103.51%; with DU-145, 117.36%; with MCF7 it was 106.75%; in the test with MDA-MB-435, 93.37%; in the test with K562, 101.77%. For the same compound, the Activity in the test on MOLT-4 is listed as 100.94%; in the test with SR it was 126.57%; with NCI-H226 it was 87.92%; with SW-620, 99.75%; in the test with SF-268, 109.15%; with Malme-3M it was 102.07%. Further, the Activity in the test on HL-60(TB) is listed as 112.14%; in the test on CCRF-CEM it was 121.99%.
Regarding `Cn1cc[n+](Cc2ccccc2)c1.F[P-](F)(F)(F)(F)F`, the Activity is 96.35% in the test with ACHN; 102.92% with RXF 393; 118.22% in the test with DU-145; 102.21% in the test on MCF7; 117.55% in the test on MDA-MB-435; 70.16% with K562. Besides, the Activity in the test with MOLT-4 was determined as 81.59%; with SR, 103.39%; with NCI-H226, 99.73%; in the test with SW-620, 118.52%; in the test with SF-268, 108.05%; in the test with Malme-3M, 118.68%. Further, the Activity with HL-60(TB) is reported as 44.77%; with CCRF-CEM, 113.04%.
On to `CCCCCC[n+]1ccn(C)c1.FC(F)(F)C(F)(F)[P-](F)(F)(F)(C(F)(F)C(F)(F)F)C(F)(F)C(F)(F)F`, for which the Activity in the test on ACHN came to 54.23%; with RXF 393 it was 92.19%; with DU-145, 107.66%; with MCF7, 62.49%; in the test on MDA-MB-435 it was 51.22%; in the test on K562, 68.14%. Besides, the Activity in the test with MOLT-4 is 81.53%; in the test on SR it was 77.17%; in the test on NCI-H226, 57.04%; with SW-620 it was 80.17%; with SF-268, 103.36%; with Malme-3M, 102.23%. Besides, the Activity is reported as 96.2% in the test on HL-60(TB) and 65.92% in the test with CCRF-CEM.
`COCC[n+]1ccn(C)c1.O=S(=O)([N-]S(=O)(=O)C(F)(F)F)C(F)(F)F`: the Activity was determined as 96.19% with ACHN; 103.9% with RXF 393; 99.43% in the test with DU-145; 101.56% in the test with MCF7; 117.7% in the test with MDA-MB-435; 109.67% with K562. Besides, the Activity with MOLT-4 is on record as 105.9%; with SR it was 116.69%; in the test with NCI-H226, 100.3%; in the test on SW-620, 99.89%; in the test on SF-268, 107.22%; with Malme-3M it was 125.61%. Moreover, the Activity was 103.77% in the test with HL-60(TB) and 55.66% with CCRF-CEM.
`CCCCCCCC[n+]1ccn(C)c1.F[P-](F)(F)(F)(F)F`: the Activity with ACHN is given as 67.29%; in the test on RXF 393, 83.22%; with DU-145, 99.58%; with MCF7, 69.15%; in the test on MDA-MB-435, 52.08%; in the test on K562, 70.78%. The Activity with MOLT-4 turned out to be 86.46%; in the test on SR it was 95.02%; with NCI-H226 it was 72.91%; in the test on SW-620, 73.41%; with SF-268, 96.73%; in the test with Malme-3M, 62.25%. In addition, the Activity in the test on HL-60(TB) is 91.74%; in the test with CCRF-CEM, 84.88%.
In the case of `CCCCCCCC[n+]1ccn(C)c1.F[B-](F)(F)F`, the Activity in the test with ACHN stood at 70.72%; in the test with RXF 393 it was 104.98%; in the test with DU-145, 95.55%; in the test on MCF7 it was 76.87%; in the test on MDA-MB-435 it was 59.67%; in the test on K562, 81.46%. The Activity with MOLT-4 is on record as 92.94%; in the test with SR, 87.14%; with NCI-H226 it was 75.04%; in the test on SW-620 it was 80.56%; with SF-268 it was 103.08%; with Malme-3M, 80.13%. The Activity with HL-60(TB) is 64.63%; with CCRF-CEM it was 45.61%.
With `CCCCCCCCOS(=O)(=O)[O-].CCCCCCCC[n+]1ccn(C)c1`, the Activity with ACHN is 67.5%; in the test with RXF 393, 84%; with DU-145 it was 96.94%; in the test on MCF7, 75.57%; in the test on MDA-MB-435, 55.5%; in the test with K562, 93.71%. The Activity in the test with MOLT-4 was 86.99%; in the test on SR, 82.08%; in the test on NCI-H226, 74.07%; with SW-620, 86.25%; in the test on SF-268, 92.2%; in the test on Malme-3M it was 80.15%. In addition, the Activity was 82.07% in the test on HL-60(TB) and 97.94% in the test with CCRF-CEM.
